According to patent US10604523B2, “1-aryl-4-methyl-[1,2,4]triazolo[4,3-a]quinoxaline derivatives” (Janssen Pharmaceutica NV, priority 2011, dated 2020):
Like-named read-outs stand apart in the source and are kept apart here.

Assays:
[1] = target: T1, Human recombinant PDE2A (hPDE2A) (Homo sapiens, UniProt O00408); assay: In vitro assay PDE2A (SPA, 3H-cGMP); type: biochemical; settings: read-out: pIC50 PDE2 (converted)
T1 construct: made in house; host or cells: Sf9 insect cells (baculovirus)
Experimental: Tested compounds were dissolved and diluted in 100% DMSO to a concentration 100 fold of the final concentration in the assay. Compound dilutions (0.4 μl) were added in 384 well plates to 20 μl of incubation buffer (50 mM Tris pH 7.8, 8.3 mM MgCl2, 1.7 mM EGTA). 10 μl of hPDE2A enzyme in incubation buffer was added and the reaction was started by addition of 10 μl substrate to a final concentration of 10 μM cGMP and 0.01 μCi ^3H-cGMP. The reaction was incubated for 45 minutes at room temperature. […] After sedimentation of the beads during 30 minutes the radioactivity was measured in a Perkin Elmer Topcount scintillation counter and results were expressed as cpm. For blanc values the enzyme was omitted from the reaction and replaced by incubation buffer. Control values were obtained by addition of a final concentration of 1% DMSO instead of compound.

[2] = target: T2, Rat recombinant PDE10A (rPDE10A2) (Rattus norvegicus, UniProt Q9QYJ6); assay: In vitro assay PDE10A (SPA, 3H-cAMP); type: biochemical; settings: read-out: PIC50 PDE10 (converted)
T2 construct: made in house; host or cells: Sf9 insect cells (baculovirus)
T2 sequence (Q9QYJ6 1-794): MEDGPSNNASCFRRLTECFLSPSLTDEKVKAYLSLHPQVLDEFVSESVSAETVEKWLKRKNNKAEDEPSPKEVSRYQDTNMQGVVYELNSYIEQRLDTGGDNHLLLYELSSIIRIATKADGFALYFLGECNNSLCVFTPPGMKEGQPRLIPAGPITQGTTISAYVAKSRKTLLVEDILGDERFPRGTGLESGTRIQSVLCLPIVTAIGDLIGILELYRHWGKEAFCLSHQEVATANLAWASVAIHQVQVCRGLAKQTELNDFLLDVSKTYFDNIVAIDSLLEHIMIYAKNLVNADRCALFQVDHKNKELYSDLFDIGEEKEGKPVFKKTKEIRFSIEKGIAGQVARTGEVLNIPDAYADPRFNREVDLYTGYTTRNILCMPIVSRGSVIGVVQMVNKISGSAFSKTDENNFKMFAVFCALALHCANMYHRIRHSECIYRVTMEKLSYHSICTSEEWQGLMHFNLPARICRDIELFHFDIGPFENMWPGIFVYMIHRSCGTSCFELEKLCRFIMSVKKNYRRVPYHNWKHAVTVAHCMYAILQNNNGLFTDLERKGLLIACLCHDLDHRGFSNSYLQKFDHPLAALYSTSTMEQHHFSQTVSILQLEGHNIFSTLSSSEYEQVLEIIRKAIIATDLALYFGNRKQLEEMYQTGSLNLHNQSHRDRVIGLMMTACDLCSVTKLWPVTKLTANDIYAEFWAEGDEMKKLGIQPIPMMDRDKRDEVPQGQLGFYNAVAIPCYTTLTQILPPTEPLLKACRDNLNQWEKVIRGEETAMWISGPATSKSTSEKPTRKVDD

[3] = tested on: Apomorphine-induced agitation; assay: Reversal of Apomorphine-induced Agitation in Rats (APO); type: in vivo, rat; settings: for PO Max effect (cumulative agitation score over 60 min) / SC Max effect (cumulative agitation score over 60 min): apomorphine 1.0 mg/kg i.v.; for PO LAD (lowest active dose) / SC LAD (lowest active dose): lowest dose at which ≥67% tested animals respond; for SC Dose at max effect / SC Max effect (cumulative agitation score over 60 min) / SC LAD (lowest active dose): subcutaneous route
Experimental: Apomorphine (1.0 mg/kg, i.v.)-induced agitation was scored every 5 min over the first hour after injection of apomorphine. The score system was: (3) pronounced, (2) moderate, (1) slight, and (0) absent. […] For the present purpose, the cumulative agitation score over the whole 60-min observation period was used as a measure to describe the maximum effect (Max effect).

[4] = -log IC50 expressed in mol/L, rPDE10A2, 60 nM cAMP

T1 sequence (O00408 whole entry): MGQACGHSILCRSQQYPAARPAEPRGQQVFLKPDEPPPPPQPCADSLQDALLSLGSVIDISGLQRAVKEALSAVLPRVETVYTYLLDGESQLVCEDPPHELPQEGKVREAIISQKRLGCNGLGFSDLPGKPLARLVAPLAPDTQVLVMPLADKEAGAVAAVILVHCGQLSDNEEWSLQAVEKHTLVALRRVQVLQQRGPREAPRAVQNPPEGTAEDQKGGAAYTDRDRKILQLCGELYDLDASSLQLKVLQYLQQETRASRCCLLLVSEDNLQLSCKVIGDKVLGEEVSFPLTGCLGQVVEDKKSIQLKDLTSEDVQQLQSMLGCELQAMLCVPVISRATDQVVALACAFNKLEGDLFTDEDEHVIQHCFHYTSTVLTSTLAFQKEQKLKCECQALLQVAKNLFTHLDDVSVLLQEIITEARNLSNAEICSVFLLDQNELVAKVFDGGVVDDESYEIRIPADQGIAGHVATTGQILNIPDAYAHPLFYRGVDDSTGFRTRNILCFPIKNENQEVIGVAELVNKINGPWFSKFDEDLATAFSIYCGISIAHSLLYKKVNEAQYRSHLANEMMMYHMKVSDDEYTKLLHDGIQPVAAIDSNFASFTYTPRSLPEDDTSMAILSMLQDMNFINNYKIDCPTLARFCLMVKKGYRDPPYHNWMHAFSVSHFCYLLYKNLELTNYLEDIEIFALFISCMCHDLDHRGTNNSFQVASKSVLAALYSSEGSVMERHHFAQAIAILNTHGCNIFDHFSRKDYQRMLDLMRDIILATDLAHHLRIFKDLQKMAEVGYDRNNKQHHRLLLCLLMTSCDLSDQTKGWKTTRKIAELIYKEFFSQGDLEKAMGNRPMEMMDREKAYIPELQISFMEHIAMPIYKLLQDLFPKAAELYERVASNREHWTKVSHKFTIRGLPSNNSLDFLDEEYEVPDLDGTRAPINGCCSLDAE

| Structure (SMILES) | IC50 [1] | IC50 [2] | PO Dose at Max Effect [3] | PO Max effect (cumulative agitation score over 60 min) [3] | PO LAD (lowest active dose) [3] | SC Dose at max effect [3] | SC Max effect (cumulative agitation score over 60 min) [3] | SC LAD (lowest active dose) [3] | IC50 [2, 4] |
| --- | --- | --- | --- | --- | --- | --- | --- | --- | --- |
| Cc1nc2ccc(O)cc2n2c(-c3ccccc3Cl)nnc12 [Compound B-13, 1-(2-Chlorophenyl)-4-methyl[1,2,4]triazolo[4,3-a]quinoxalin-8-ol] | 2 nM | 45.7 nM | 10 mg/kg | 19 | 10 mg/kg |  |  |  |  |
| Cc1nc2ccc(OC(C)(F)F)cc2n2c(-c3ccccc3Cl)nnc12 [Compound B-25, 1-(2-Chlorophenyl)-8-(1,1-difluoroethoxy)-4-methyl[1,2,4]triazolo[4,3-a]-quinoxaline] | 3.89 nM | 15.5 nM | 10 mg/kg | 19 | 10 mg/kg |  |  |  |  |
| Cc1nc2ccc(C(=O)NCCCc3ccccc3)cc2n2c(-c3ccccc3)nnc12 [Compound B-77] | 7.41 nM | 77.6 nM | 2.5 mg/kg | 21 | > 2.5 mg/kg |  |  |  |  |
| Cc1nc2ccc(C(=O)N(C)Cc3ccccc3)cc2n2c(-c3ccccc3)nnc12 [Compound B-104] | 19.1 nM | 204 nM |  |  |  | 2.5 mg/kg | 21 | > 2.5 mg/kg |  |
| Cc1nc2cc(Br)ccc2n2c(-c3ccccc3Cl)nnc12 [Compound B-3b, 7-Bromo-1-(2-chlorophenyl)-4-methyl[1,2,4]triazolo[4,3-a]quinoxaline] | 60.3 nM | 191 nM | 10 mg/kg | 22 | > 10 mg/kg |  |  |  |  |
| C=Cc1ccc2nc(C)c3nnc(-c4ccccc4Cl)n3c2c1 [Compound B-14, 1-(2-Chlorophenyl)-8-ethenyl-4-methyl[1,2,4]triazolo[4,3-a]quinoxaline] | 7.08 nM | 37.2 nM | 10 mg/kg | 21 | > 10 mg/kg |  |  |  |  |
| Cc1ncccc1-c1nnc2c(C)nc3ccc(CN4CCOCC4)cc3n12 [Compound B-118] | 25.7 nM | 117 nM |  |  |  | 10 mg/kg | 17 | 10 mg/kg |  |
| Cc1nc2ccc(C(O)C(F)(F)F)cc2n2c(-c3ccccc3Cl)nnc12 (centres unmarked) [Compound B-21, 1-[1-(2-Chlorophenyl)-4-methyl[1,2,4]triazolo[4,3-a]quinoxalin-8-yl]-2,2,2-trifluoroethanol] | 6.46 nM | 41.7 nM | 10 mg/kg | 24 | > 10 mg/kg |  |  |  |  |
| CCOC(=O)c1ccc2nc(C)c3nnc(-c4ccccc4Cl)n3c2c1 [Compound B-1a, Ethyl 1-(2-chlorophenyl)-4-methyl[1,2,4]triazolo[4,3-a]quinoxaline-8-carboxylate] | 4.27 nM |  | 2.5 mg/kg | 22 | > 2.5 mg/kg |  |  |  | 58.9 nM |
| Cc1nc2ccc(C(=O)NCc3ccncc3)cc2n2c(-c3ccccc3)nnc12 [Compound B-83] | 9.77 nM | 102 nM |  |  |  | 2.5 mg/kg | 29 | > 10 mg/kg |  |
| Cc1ncccc1-c1nnc2c(C)nc3ccc(Br)cc3n12 [Compound B-131] | 29.5 nM | 132 nM | 10 mg/kg | 17 | 10 mg/kg |  |  |  |  |
| COc1ccc2nc(C)c3nnc(-c4ccccc4Cl)n3c2c1 [Compound B-5, 1-(2-Chlorophenyl)-8-methoxy-4-methyl[1,2,4]triazolo[4,3-a]quinoxaline] | 7.59 nM | 25.1 nM | 10 mg/kg | 21 | > 10 mg/kg |  |  |  |  |
| CCOCc1ccc2nc(C)c3nnc(-c4ccccc4)n3c2c1 [Compound B-12, 8-(Ethoxymethyl)-4-methyl-1-phenyl[1,2,4]triazolo[4,3-a]quinoxaline] | 21.4 nM | 269 nM |  |  |  | 10 mg/kg | 19 | 10 mg/kg |  |
| Cc1nc2ccc(CN3CCN(C)CC3)cc2n2c(-c3ccccc3Cl)nnc12 [Compound B-73] | 6.76 nM |  |  |  |  | 10 mg/kg | 19 | 10 mg/kg | 67.6 nM |
| COc1ccc(Cl)c(-c2nnc3c(C)nc4ccc(CN5CCC(F)CC5)cc4n23)c1 [Compound B-97] | 14.1 nM | 77.6 nM |  |  |  | 10 mg/kg | 19 | 10 mg/kg |  |
| Cc1nc2ccc(CN3CCOC(CF)C3)cc2n2c(-c3ccccc3Cl)nnc12 (centres unmarked) [Compound B-59] | 4.9 nM | 23.4 nM |  |  |  | 10 mg/kg | 15 | 10 mg/kg |  |
| Cc1nc2ccc(OCCc3ccccn3)cc2n2c(-c3ccccc3Cl)nnc12 [Compound B-15, 1-(2-Chlorophenyl)-4-methyl-8-(2-pyridin-2-ylethoxy) [1,2,4]triazolo[4,3-a]quinoxaline] | 8.71 nM | 16.2 nM |  |  |  | 10 mg/kg | 10 | 2.5 mg/kg |  |
| Cc1nc2ccc(C(=O)NCCN3CCCCC3)cc2n2c(-c3ccccc3Cl)nnc12 [Compound B-45] | 1.95 nM | 74.1 nM |  |  |  | 10 mg/kg | 21 | > 10 mg/kg |  |
| COc1ccccc1-c1nnc2c(C)nc3ccc(C(=O)NCc4ccccn4)cc3n12 [Compound B-53] | 3.09 nM | 37.2 nM | 10 mg/kg | 24 | > 10 mg/kg |  |  |  |  |
| Cc1nc2ccc(CN3CCOC(F)(C(F)(F)F)C3)cc2n2c(-c3ccccc3Cl)nnc12 (centres unmarked) [Compound B-114] | 24.5 nM | 105 nM | 10 mg/kg | 24 | > 10 mg/kg |  |  |  |  |
| CCOc1ccc(Cl)c(-c2nnc3c(C)nc4ccc(CN5CCN(C)CC5)cc4n23)c1 [Compound B-145] | 40.7 nM | 240 nM |  |  |  | 10 mg/kg | 22 | > 10 mg/kg |  |
| Cc1nc2ccc(OC(F)(F)F)cc2n2c(-c3ccccc3Cl)nnc12 [Compound B-4a, 1-(2-Chlorophenyl)-4-methyl-8-(trifluoromethoxy)[1,2,4]triazolo[4,3-a]quinoxaline] | 8.32 nM | 24.5 nM | 10 mg/kg | 21 | > 10 mg/kg |  |  |  |  |
| COCCNc1ccc2nc(C)c3nnc(-c4ccccc4Cl)n3c2c1 [Compound B-67] | 6.17 nM | 15.5 nM | 10 mg/kg | 21 | > 10 mg/kg |  |  |  |  |
| COCC1CCN(Cc2ccc3nc(C)c4nnc(-c5ccccc5Cl)n4c3c2)C1 (centres unmarked) [Compound B-94] | 12.9 nM | 64.6 nM |  |  |  | 5 mg/kg | 24 | > 5 mg/kg |  |
| Cc1nc2ccc(C(=O)NCCc3ccccc3)cc2n2c(-c3ccccc3Cl)nnc12 [Compound B-38] | 0.724 nM | 25.1 nM | 2.5 mg/kg | 19 | 2.5 mg/kg |  |  |  |  |
| CNC(=O)c1ccc2nc(C)c3nnc(-c4ccccc4Cl)n3c2c1 [Compound B-46] | 1.95 nM | 20 nM | 10 mg/kg | 21 | > 10 mg/kg |  |  |  |  |
| Cc1nc2ccc(CNc3cccnc3)cc2n2c(-c3ccccc3Cl)nnc12 [Compound B-50] | 2.34 nM | 11 nM |  |  |  | 10 mg/kg | 22 | > 10 mg/kg |  |
| COc1cc(NC(=O)c2ccc3nc(C)c4nnc(-c5ccccc5Cl)n4c3c2)cc(OC)c1OC [Compound B-49] | 2.34 nM | 77.6 nM | 10 mg/kg | 24 | > 10 mg/kg |  |  |  |  |
